Earlier results as cited in patent US20230320987A1, “LIPID NANOPARTICLES AND LIPOSOMES” (National Health Research Institutes, priority 2022, published 2023).

Columns and labels:
[1] = after subcutaneous injection into a human body

half-life [1]: less than one
water solubility: high
SMILES: Cc1cc(NC2CCN(C(=O)CCNCC(=O)O)CC2)nc(NCc2nc(CCCNCCCNC3CCCCC3)co2)n1 [CX-1, (3-{4-[2-({4-[3-(3-cyclohexylaminopropylamino)propyl]oxazol-2-ylmethyl}amino)-6-methyl-pyrimidin-4-ylamino]piperidin-1-yl}-3-oxopropylamino)acetic acid]
